Results on 32 compounds are retold here after the METLIN SMRT retention time set (Domingo-Almenara et al. 2019).

SMILES strings stand for the structures.

The data set can be described thus: gradient 5% acetonitrile 3 min, to 50% in 2 min, to 85% in 15 min, held 3 min, 100 µL/min. The note with it: column: Zorbax Extend-C18 2.1 x 50 mm; eluents: water / acetonitrile, 0.1% formic acid. In short, it runs like this:
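Retention time was recorded from adduct peaks, which were picked computationally and each inspected manually. Pure standards ran in mixtures of ~100 molecules on HPLC coupled to a quadrupole time-of-flight mass spectrometer, in positive and negative ionization mode, through a Zorbax Extend-C18 column (2.1 × 50 mm, 1.8 μm) at 100 μL/min. Eluents were water and acetonitrile, each with 0.1% formic acid.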
Regarding `CC(=O)N1CCc2cc(N3CC(C(=O)NCc4cccnc4)CC3=O)ccc21` (configuration not stated), the RP-LC retention time amounted to 557 s. For `Cc1ccc(-c2nnc(Cc3nc(-c4ccc(C(F)(F)F)cc4)no3)o2)cc1F`, the RP-LC retention time was determined as 1180 s.

With `Cc1ccccc1NC(=O)CN1C(=O)CC(C)S(=O)(=O)c2ccccc21` (configuration not stated), the RP-LC retention time amounted to 760 s. The same measure for `O=C(NCc1ccccc1)NC1CCN(C(=O)N2C[C@H]3C[C@H](C2)[C@H]2CCCC(=O)N2C3)CC1`: 660 s; for `Cc1cccc(Sc2nccnc2N2CCC(C(=O)NCCN3CCOCC3)CC2)c1`: 668 s. The same measure for `CC(C)n1c(N2CCN(C(=O)Cc3c[nH]c4ccccc34)CC2)cc(=O)n(C(C)C)c1=O`: 824 s; for `CCCn1c(=O)sc2cc(S(=O)(=O)N3CCC(C(=O)Nc4cccc(F)c4)CC3)ccc21`: 983 s; for `O=C(NCCc1ccco1)c1ccc2nc(CCc3ccccc3)oc2c1`: 930 s. The same measure for `COc1ccc(Cl)cc1NC(=O)C1(C)Oc2cccnc2NC1=O` (configuration not stated): 798 s. For `COc1cc(OC)c(NC(=O)N2CC(Cc3nc(-c4cnccn4)no3)C2)cc1Cl`, the RP-LC retention time stood at 733 s. The figure for `Cc1nc(-c2cccnc2)nc2c1CCC(=O)N2Cc1cccnc1` is 560 s. As for `CC(C)c1cccc(NS(=O)(=O)c2cc3n(c2)CCCNC3=O)c1`, the RP-LC retention time was 723 s. On to `COc1cc(CNC(=O)CCC(=O)N2CC3CCCN3c3ccccc32)cc(OC)c1OC` (configuration not stated), for which the RP-LC retention time came to 818 s. Compound `N#Cc1ccc(CN2CCCC2=O)cc1` displayed an RP-LC retention time of 658 s.

`COc1ccc(Cl)cc1NC(=O)N1CCN(c2cc(C)nc(Nc3ccc(C)cc3)n2)CC1` yielded an RP-LC retention time of 798 s. The same measure for `O=C(NCC1(CO)CC1)c1ccccc1F`: 599 s; for `COc1cccc(NS(=O)(=O)c2cccc(-c3nc(-c4ccccc4)no3)c2)c1`: 1140 s; for `CCC(CN1CCOCC1)NC(=O)c1c2c(cn(-c3ccccc3)c1=O)C(=O)CC(C)(C)C2` (configuration not stated): 661 s. Compound `Cc1ccc(-c2nc(-c3ccc4nnn(C)c4c3)no2)cc1` had an RP-LC retention time of 968 s.

Take `Cn1c(=O)c(C(=O)NC2CCN(Cc3ccccc3)CC2)nc2cccnc21`: the RP-LC retention time worked out at 574 s. As to `COc1ccc(NC(=O)c2c[nH]c3nc(C)ccc3c2=O)cc1`, the RP-LC retention time amounted to 776 s. As for `O=S(=O)(Cc1ccc(Cl)cc1)Nc1cccn2ncnc12`, the RP-LC retention time is 800 s. The same measure for `Cc1cccn2cc(-c3cccc(S(=O)(=O)N4CCOCC4)c3)nc12`: 604 s.

As to `COc1ccc(OC)c(S(=O)(=O)N2CCCC(C(=O)NC3CC3)C2)c1` (configuration not stated), the RP-LC retention time was 710 s. Turning to `Cc1ccccc1N1C(=O)CC(N2CCC(C(N)=O)CC2)C1=O` (configuration not stated), the RP-LC retention time worked out at 580 s. The figure for `CC(=O)Nc1ccc(-c2nc(-c3cccc(-c4ccnn4C)c3)no2)cc1` is 1140 s; for `COc1cccc(CNC(=O)Cn2c(-c3ccc(F)cc3)ncc(C#N)c2=O)c1` it is 873 s. `CCc1nnc2cc(N3CCN(C(=O)c4ccc(OC)cc4)CC3)cnn12` yielded an RP-LC retention time of 615 s.

In turn, `COC(=O)c1c(C)c(C(=O)C(C)N(C(=O)c2ccc(F)cc2)C(C)C)c(C)n1C` (configuration not stated) registered an RP-LC retention time of 922 s. The same measure for `COc1ccc(C)cc1NC(=O)Cn1c(C)nc2c(sc3nc(-c4ccccc4)ccc32)c1=O`: 1110 s; for `CN1C(=O)C(C)(C)c2cc(S(=O)(=O)N3CCN(c4ccccn4)CC3)ccc21`: 633 s; for `Cc1noc(C)c1CCNC(=O)CCCn1c2ccccc2c2cnn(C)c(=O)c21`: 713 s.
